Experimental findings from patent US20240316067A1, “METHODS OF DECREASING HEPARAN SULFATE EXPRESSION USING EXT1 INHIBITORS” (priority 2023, published 2024) are described below.

What all share (type): cell-based
One assay has as its system HS3ST1. Nature of the assay: HS3ST1 reporter cell line, HTS of FDA-approved drug library (EC-50, CCK-8). Conditions: a listed drug is a confirmed inhibitor. The source says: FIGS. 13A-13C show EC-50 and CCK-8 experiments on HS3ST1 using bortezomib.
FIGS. 14A-14C show EC-50 and CCK-8 experiments on HS3ST1 using zinc pyrithione.
FIGS. 15A-15B show EC-50 and CCK-8 experiments on HS3ST1 using artesunate.
(§1) Using a stable cell line with promoter luciferase reporter of the HS-biosynthetic gene EXT1, the EXT1 and other HS-biosynthetic gene reporter cell lines were screened with an FDA-approved drug library. (FIG. 1; FIG. 2)

A further assay has as its system EXT1. Nature of the assay: EXT1 promoter luciferase reporter stable cell line, HTS of FDA-approved drug library (EC-50, CCK-8). Particulars: for confirmed candidates when screened with respect to EXT1: EC-50 and CCK-8, 10 μL; for Inhibition Candidate, confirmation at lower concentration: EXT1 cell line, 2nd confirmatory screen, a listed drug is a confirmed inhibitor.
Excerpt: as §1
(In a reporter assay the amount or activity of a reporter protein is the signal.)

For the next assay, the system named is HS3ST4. Nature of the assay: HS3ST4 reporter cell line, HTS of FDA-approved drug library. Particulars: a listed drug is a confirmed inhibitor.
Excerpt: as §1

For `C[C@H]1[C@H](OC(=O)CCC(=O)O)O[C@@H]2O[C@@]3(C)CC[C@H]4[C@H](C)CC[C@@H]1[C@@]24OO3` [Artesunate], the “Inhibition Candidate, confirmation at lower concentration” value with HS3ST1 is “A1- Artesunate”.

Take `CC(C)C[C@H](NC(=O)[C@H](Cc1ccccc1)NC(=O)c1cnccn1)B(O)O` [Bortezomib]: the “Inhibition Candidate, confirmation at lower concentration” value with HS3ST1 is reported as “B3- Bortezomib”. With `C=C1/C(=C\C=C2/CCC[C@]3(C)[C@@H]([C@H](C)CCCC(C)(C)O)CC[C@@H]23)C[C@@H](O)C[C@@H]1O` [Calcitriol, 1, 25-dihydroxycholecalciferol], in the assay with EXT1, the “confirmed candidates when screened with respect to EXT1” value is recorded as “confirmed candidates” and the “Inhibition Candidate, confirmation at lower concentration” value is “B2- Calcitriol”.

For `COc1ccc(/C=C\c2cc(OC)c(OC)c(OC)c2)cc1OP(=O)(O)O` [Frosbretabullin, Fosbretabulin], the “Inhibition Candidate, confirmation at lower concentration” value in the assay on HS3ST4 is listed as “D5- Frosbretabullin”. Still for that read-out and setting: to `O=C(Nc1ccc([N+](=O)[O-])cc1Cl)c1cc(Cl)ccc1O` [Niclosamide] belongs “A6- Niclosamide”. For the molecule `C=C1CC[C@H](O)C/C1=C/C=C1\CCC[C@]2(C)[C@@H]([C@H](C)CCCC(C)C)CC[C@@H]12` [Vitamin D3, cholecalciferol], in the assay on EXT1, the “confirmed candidates when screened with respect to EXT1” value is on record as “confirmed candidates” and the “Inhibition Candidate, confirmation at lower concentration” value is on record as “D5- Vitamin D3”. Besides, the “Inhibition Candidate, confirmation at lower concentration” value in the assay with EXT1 (listed as vitamin D3) is reported as “confirmed to inhibit at low doses”. For the molecule Zinc pyrithione, the “Inhibition Candidate, confirmation at lower concentration” value in the assay on HS3ST1 is recorded as “D6- Zinc Pyrithione”.
